In patent publication US11234954B2, “Low-dose doxepin for treatment of sleep disorders in elderly patients” (Pernix Sleep, Inc., priority 2006, dated 2022):
Read-outs that look alike come from different tables or passages of the source.

Legend:
[1] = tested on: patients aged 65 years or older with primary sleep maintenance insomnia; assay: Subjective sleep data, elderly crossover study (Example 1); assay type: in vivo, human; conditions: n = 71
Excerpt: “sWASO” refers to subjective wake after sleep onset (WASO).
“sTST” refers to subjective total sleep time.
“sNAASO” refers to subjective NAASO.
“LSO” refers to “latency to sleep onset, typically expressed in minutes.
The patients report subjected data, which were consistent with the PSG data.

[2] = tested on: patients aged 65 years or older with primary sleep maintenance insomnia; assay: Adverse events and safety, elderly crossover study (Example 1); assay type: in vivo, human
Excerpt: All randomized patients who received at least one dose of double-blind study medication were included in the safety analyses, which were based on observed data.
The adverse events are arranged by system organ class.

[3] = tested on: primary elderly insomnia patients with sleep maintenance difficulties; assay type: in vivo, human
Method: Subjects were females and males, 65 years of age or older, with at least a 3-month history of primary insomnia (as defined in the Diagnostic and Statistical Manual of Mental Disorders, Fourth Edition, Text Revision), who reported experiencing at least 60 minutes of Wake After Sleep Onset (WASO), at least 30 minutes of Latency to Sleep Onset (LSO), and no more than 6.5 hours of Total Sleep Time (TST) on at least 4 of 7 consecutive nights prior to PSG Screening.
Primary Efficacy Variable: The primary efficacy variable was WASO on Night 1.
Additional PSG Variables: Additional efficacy variables assessed on each PSG recording night during the Double-blind Treatment Period were WASO (Night 15, Night 29, Night 57, and Night 85); WTDS; TST; Sleep Efficiency (SE) overall, by third of the night, the last quarter of the night, and hour of the night; LPS; Latency to Stage 2 Sleep; Number of Awakenings After Sleep Onset (NAASO) overall and by hour; Total Wake Time (TWT) overall and by hour; Wake Time After Sleep (WTAS); and sleep architecture (including percentage and minutes of Stage 1, 2, and 3-4 sleep; percentage and minutes of rapid eye movement [REM] and non-REM sleep; and Latency to REM Sleep.)

[4] = tested on: Adult Patients (Ages 18-64) with Primary Insomnia; assay: Adverse events and safety, adult crossover study (Example 3); assay type: in vivo, human
Method: A randomized, multi-center, double-blind, placebo-controlled, four-period crossover, dose-response study was designed to assess the effects of doxepin (1 mg, 3 mg and 6 mg) compared with placebo in patients with primary sleep maintenance insomnia.
Patients who qualified for study entry, based on the screening PSG assessments, were randomized to a treatment sequence using a Latin square design. A final study visit was performed for patients either after completion of the four treatment periods or upon discontinuation from the study. Efficacy assessments were made at each visit and safety assessments were performed throughout the study.
The main inclusion criteria were male and/or female patients, aged 18 to 64 years, in good general health with at least a 3-month history of DSM-IV-defined primary insomnia, reporting each of the following on four of seven nights prior to PSG screening: ≤6.5 hours of total sleep time (TST), ≥60 min of WASO and ≥20 min of LSO. Doxepin HCl 1 mg, 3 mg and 6 mg capsules, and placebo capsules, were provided as a single dose for oral administration.

[5] = in vivo; cited from earlier work
[6] = tested on: primary elderly insomnia patients with sleep maintenance difficulties; assay: Safety and TEAEs, Phase III elderly study (Example 2)
Method: A phase III, randomized, double-blind, placebo-controlled, parallel-group, multicenter study was conducted to assess the long term efficacy and safety of two dose levels of doxepin HCl, 1 mg and 3 mg, in primary elderly insomnia patients with sleep maintenance difficulties.
Doxepin 1 mg tablets or 3 mg tablets (lot number 3044567) were administered as a single oral dose for 85 consecutive nights during the 12-week Double-blind Treatment Period.

## CN(C)CCC=C1c2ccccc2COc2ccccc21 (mixture of isomers) [Doxepin]
[1]; 1 mg
  LSO, Mean (SD): 42.3 (32.1)
  Sleep Quality, Mean (SD): 0.8 (1.0)
  sNAASO, Mean (SD): 3.2 (2.1)
  sTST, Mean (SD): 355.7 (63.1)
  sWASO, Mean (SD): 74.3 (55.2)
[1]; 3 mg
  LSO, Mean (SD): 42.4 (40.1)
  Sleep Quality, Mean (SD): 0.9 (1.0)
  sNAASO, Mean (SD): 2.9 (1.7)
  sTST, Mean (SD): 362.4 (64.3)
  sWASO, Mean (SD): 72.2 (56.4)
[1]; 6 mg
  LSO, Mean (SD): 33.9 (24.8)
  Sleep Quality, Mean (SD): 0.8 (1.0)
  sNAASO, Mean (SD): 3.0 (1.4)
  sTST, Mean (SD): 369.4 (65.3)
  sWASO, Mean (SD): 71.5 (57.4)
[2]; 1 mg, N = 74
  HEADACHE: Number of Events: 0
  HEADACHE: Number of Patients: 0 (0%)
[2]; 3 mg, N = 75
  HEADACHE: Number of Events: 0
  HEADACHE: Number of Patients: 0 (0%)
[2]; 6 mg, N = 74
  HEADACHE: Number of Events: 0
  HEADACHE: Number of Patients: 0 (0%)
[3]; Night 1, 1 mg
  LS mean WASO shorter compared with the placebo group: 17.8 min
[3]; Night 1, 1 mg, ITT N = 77
  LPS, mean (SD): 38.8 (29.58) minutes
  SE Overall, mean (SD): 74.8 (11.05) %
  TST, mean (SD): 359.1 (53.05) minutes
  WTAS, mean (SD): 8.9 (18.84) minutes
[3]; Night 1, 1 mg, ITT n = 77
  WASO, Diff. of LS Mean versus placebo: -17.8 min
  WASO, Mean (Primary Efficacy Variable): 91.8 min
[3]; Night 1, 3 mg
  LS mean WASO shorter compared with the placebo group: 33.8 min
[3]; Night 1, 3 mg, ITT N = 82
  LPS, mean (SD): 28.6 (20.53) minutes
  SE Overall, mean (SD): 79.8 (9.21) %
  TST, mean (SD): 382.9 (44.23) minutes
  WTAS, mean (SD): 4.7 (14.61) minutes
[3]; Night 1, 3 mg, ITT n = 82
  WASO, Diff. of LS Mean versus placebo: -33.8 min
  WASO, Mean (Primary Efficacy Variable): 74.5 min
[3]; Night 85, 1 mg, ITT N = 77
  LPS, mean (SD): 29.0 (26.45) minutes
  SE Overall, mean (SD): 75.1 (9.83) %
  TST, mean (SD): 360.5 (47.17) minutes
  WTAS, mean (SD): 10.8 (21.78) minutes
[3]; Night 85, 1 mg, ITT n = 69
  WASO, Diff. of LS Mean versus placebo: -14.6 min
  WASO, Mean: 97.0 min
[3]; Night 85, 3 mg, ITT N = 82
  LPS, mean (SD): 37.5 (32.74) minutes
  SE Overall, mean (SD): 77.9 (8.80) %
  TST, mean (SD): 373.7 (42.24) minutes
  WTAS, mean (SD): 5.4 (13.20) minutes
[3]; Night 85, 3 mg, ITT n = 74
  WASO, Diff. of LS Mean versus placebo: -33.2 min
  WASO, Mean: 75.7 min
[4]; 1 mg, N = 66
  HEADACHE: Number of Events: 3
  HEADACHE: Number of Patients: 3 (5%)
  NASAL CONGESTION: Number of Events: 1
  NASAL CONGESTION: Number of Patients: 1 (2%)
[4]; 3 mg, N = 66
  HEADACHE: Number of Events: 0
  HEADACHE: Number of Patients: 0 (0%)
  NASAL CONGESTION: Number of Events: 0
  NASAL CONGESTION: Number of Patients: 0 (0%)
[4]; 6 mg, N = 67
  HEADACHE: Number of Events: 1
  HEADACHE: Number of Patients: 1 (1%)
  NASAL CONGESTION: Number of Events: 0
  NASAL CONGESTION: Number of Patients: 0 (0%)
[5]
  mean half-life: 17 h
[6]; 1 mg and 3 mg
  deaths during the study or within 30 days following last dose: no reported deaths
[6]; 1 mg, N = 77
  Infections and Infestations, subjects (%): 12 (16%)
  Upper respiratory tract infection, subjects (%): 2 (3%)
  Urinary tract infection, subjects (%): 2 (3%)
[6]; 3 mg, N = 82
  Infections and Infestations, subjects (%): 11 (13%)
  Upper respiratory tract infection, subjects (%): 1 (1%)
  Urinary tract infection, subjects (%): 0 (0%)
